Assay results taken from the NIST ThermoML archive (doi:10.1021/je025657+).
Values joined by “and” are separate entries in the source; they are usually repeats but may differ in a detail not shown here. Identical values can stand only once. Numbers after ± are expanded uncertainties.

COC(F)(F)C(F)(F)F [methyl pentafluoroethyl ether]
Settings	mass density [kg/m3]
330 K, 2009.1 kPa, Liquid	1174.81 ± 0.9
330 K, 2033.5 kPa, Liquid	1173.24 ± 0.9
330 K, 2499.3 kPa, Liquid	1178.46 ± 0.94
330 K, 3014.1 kPa, Liquid	1182.15 ± 0.98
330 K, 3040.4 kPa, Liquid	1180.5 ± 0.98
330 K, 3527.6 kPa, Liquid	1185.73 ± 1
330 K, 4007.5 kPa, Liquid	1188.95 ± 1.1
330 K, 4054 kPa, Liquid	1187.37 ± 1.1
330 K, 4522.8 kPa, Liquid	1192.32 ± 1.1
330 K, 5044.3 kPa, Liquid	1195.65 ± 1.2
330 K, 5095.2 kPa, Liquid	1194.02 ± 1.2
330 K, 5526.8 kPa, Liquid	1198.64 ± 1.2
330 K, 6004.2 kPa, Liquid	1201.54 ± 1.2
330 K, 6121.5 kPa, Liquid	1200.18 ± 1.2
330 K, 6544.9 kPa, Liquid	1204.73 ± 1.3
330 K, 7006.4 kPa, Liquid	1207.37 ± 1.3
330 K, 7184 kPa, Liquid	1206.23 ± 1.4
340 K, 72.2 kPa, Gas	3.93 ± 0.28
340 K, 97.1 kPa, Gas	5.22 ± 0.29
340 K, 106 kPa, Gas	5.76 ± 0.29
340 K, 154.8 kPa, Gas	8.59 ± 0.3
340 K, 198.1 kPa, Gas	11.09 ± 0.3
340 K, 224.8 kPa, Gas	12.57 ± 0.31
340 K, 295.9 kPa, Gas	17.05 ± 0.32
340 K, 323.2 kPa, Gas	18.7 ± 0.32
340 K, 396.6 kPa, Gas	23.61 ± 0.34
340 K, 495.8 kPa, Gas	30.46 ± 0.36
340 K, 596 kPa, Gas	38.08 ± 0.38
340 K, 597.2 kPa, Gas	38.04 ± 0.38
340 K, 707 kPa, Liquid	1124.67 ± 0.66
340 K, 722.8 kPa, Liquid	1124.82 ± 0.66
340 K, 1026.7 kPa, Liquid	1129.54 ± 0.69
340 K, 1053.7 kPa, Liquid	1128.14 ± 0.69
340 K, 1524.7 kPa, Liquid	1134.41 ± 0.73
340 K, 1999.2 kPa, Liquid	1137.11 ± 0.76
340 K, 2020.3 kPa, Liquid	1139.04 ± 0.77
340 K, 2516 kPa, Liquid	1143.49 ± 0.81
340 K, 3002.4 kPa, Liquid	1147.7 ± 0.85
340 K, 3017 kPa, Liquid	1145.96 ± 0.84
340 K, 3529.7 kPa, Liquid	1152.07 ± 0.89
340 K, 3993.9 kPa, Liquid	1155.78 ± 0.92
340 K, 4072.4 kPa, Liquid	1154.47 ± 0.92
340 K, 4525.8 kPa, Liquid	1159.9 ± 0.97
340 K, 5046.6 kPa, Liquid	1163.8 ± 1
340 K, 5093 kPa, Liquid	1162.13 ± 1
340 K, 5487.3 kPa, Liquid	1166.99 ± 1.1
340 K, 6030.7 kPa, Liquid	1170.83 ± 1.1
340 K, 6115.2 kPa, Liquid	1169.4 ± 1.1
340 K, 6527.2 kPa, Liquid	1174.25 ± 1.1
340 K, 7001.9 kPa, Liquid	1177.33 ± 1.2
340 K, 7160.8 kPa, Liquid	1176.36 ± 1.2
350 K, 71.4 kPa, Gas	3.8 ± 0.28
350 K, 104.7 kPa, Gas	5.6 ± 0.29
350 K, 129.8 kPa, Gas	6.86 ± 0.29
350 K, 152.8 kPa, Gas	8.19 ± 0.3
350 K, 222 kPa, Gas	12.14 ± 0.31
350 K, 275 kPa, Gas	15.14 ± 0.31
350 K, 319.9 kPa, Gas	17.93 ± 0.32
350 K, 395 kPa, Gas	22.4 ± 0.33
350 K, 455.2 kPa, Gas	26.4 ± 0.34
350 K, 560.7 kPa, Gas	33.51 ± 0.36
350 K, 777.4 kPa, Gas	50.08 ± 0.42
350 K, 799.2 kPa, Gas	52.12 ± 0.43
350 K, 902.4 kPa, Liquid	1084.92 ± 0.55
350 K, 933 kPa, Liquid	1085.29 ± 0.56
350 K, 1008.2 kPa, Liquid	1087.64 ± 0.56
350 K, 1049.9 kPa, Liquid	1086.78 ± 0.56
350 K, 1470.3 kPa, Liquid	1093.45 ± 0.59
350 K, 2013.5 kPa, Liquid	1099.88 ± 0.63
350 K, 2056.5 kPa, Liquid	1098.92 ± 0.62
350 K, 2517.3 kPa, Liquid	1105.5 ± 0.66
350 K, 3024.3 kPa, Liquid	1110.87 ± 0.7
350 K, 3061.7 kPa, Liquid	1109.59 ± 0.69
350 K, 3474.5 kPa, Liquid	1115.43 ± 0.73
350 K, 4005.1 kPa, Liquid	1120.6 ± 0.77
350 K, 4100.2 kPa, Liquid	1119.85 ± 0.77
350 K, 4481.5 kPa, Liquid	1124.97 ± 0.81
350 K, 4979.5 kPa, Liquid	1129.41 ± 0.85
350 K, 5116.8 kPa, Liquid	1128.93 ± 0.85
350 K, 5469.1 kPa, Liquid	1133.62 ± 0.89
350 K, 5973.9 kPa, Liquid	1137.8 ± 0.93
350 K, 6125.5 kPa, Liquid	1137.3 ± 0.94
350 K, 6531.4 kPa, Liquid	1142.27 ± 0.98
350 K, 6996.6 kPa, Liquid	1145.86 ± 1
350 K, 7196.9 kPa, Liquid	1145.6 ± 1
360 K, 45.3 kPa, Gas	2.31 ± 0.28
360 K, 98.2 kPa, Gas	5.11 ± 0.29
360 K, 137.2 kPa, Gas	7.1 ± 0.29
360 K, 200.1 kPa, Gas	10.49 ± 0.3
360 K, 231.4 kPa, Gas	12.2 ± 0.31
360 K, 289.8 kPa, Gas	15.49 ± 0.32
360 K, 334.5 kPa, Gas	18.07 ± 0.32
360 K, 415.3 kPa, Gas	22.84 ± 0.34
360 K, 477.9 kPa, Gas	26.77 ± 0.35
360 K, 586.1 kPa, Gas	33.71 ± 0.37
360 K, 670.7 kPa, Gas	39.54 ± 0.39
360 K, 807.9 kPa, Gas	49.64 ± 0.42
360 K, 915.4 kPa, Gas	58.53 ± 0.45
360 K, 990.4 kPa, Gas	65.14 ± 0.48
360 K, 1139.7 kPa, Liquid	1041.29 ± 0.44
360 K, 1228 kPa, Liquid	1042.77 ± 0.44
360 K, 1529.8 kPa, Liquid	1049.05 ± 0.46

mass density
Settings	330 K	340 K	350 K
Gas	–	47.9 ± 0.21 kg/m3	61.38 ± 0.23 kg/m3
Liquid	1161.46 ± 0.77 kg/m3 and 1163.08 ± 0.77 kg/m3	1124.55 ± 0.65 kg/m3 and 1126.1 ± 0.65 kg/m3 and 1126.12 ± 0.65 kg/m3	1084.74 ± 0.54 kg/m3 and 1086.06 ± 0.55 kg/m3
